Experimental data taken from patent publication US4410541A, “Composite for improving lipid metabolism” (Nihon Nosan Kogyo K.K., priority 1981, dated 1983).

Assay: Animal Experiment 2: whole cholesterol in hypercholesterolemia rats (Zurkowski's method)
Assay type: in vivo, rats of Wistar descent
Settings: male Wistar rats on cholesterol feed, five days; composite oral 75 μg monoiodohistidine/day/rat, contrast groups equal iodine amount; control group 335
Method: A test groups consisted of ten heads of male rats of Wistar descent, which weighed about 120 g. The test group was fed in a cage at 24±1° C. of temperature and at 50 to 60% of humidity. […] The composite to be tested was made from the yolk of egg of the egg-laying hens to which calcium iodate was fed. The composite was dissolved in distilled water, and then orally dosed to the rats by means of a stomach probe at the rate of 75 μg of monoiodohistidine per day per rat for five days in parallel with feeding of the cholesterol containing feed. The rats were caused to fast for a night after composite dosing was finished, and next morning blood was taken from fundus of the rat's eyes in order to measure the amount of whole cholesterol by Zurkowski's method.
A control group, a contrast group (1) and a contrast group (2) equally consisted of rats which got hypercholesterolemia by the same process as mentioned in the test group. While potassium iodide was dosed to the contrast group (1) so that the iodine amount would be equal to that of the test group, iodo-lecithin was dosed to the contrast group (2) so that the iodine amount would be equal to that of the test group. On the other hand, no iodine agent or compound was dosed to the control group. And, as to the rats of these groups, the amount of whole cholesterol was measured by the same method as mentioned in the test group.

| Compound | Amount of whole Cholesterol |
| --- | --- |
| iodo-lecithin | 325 mg/dL |
| [I-].[K+] [potassium iodide] | 323 mg/dL |
